In ChEMBL document CHEMBL1201862, “PubChem BioAssay data set” (2004):
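96-well plates; 48 h exposure; 5 concentrations. Endpoints by linear interpolation between flanking doses. Not reached: highest tested concentration assigned. GI50: concentration for 50% inhibition of growth.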 The source made the active and inactive calls. Rule as the data show it: active = GI50 up to about 1.1 µM and inactive = higher.

How the values were obtained:
Test in all cases: inhibition of tumour cell growth, NCI panel, 48 h
[1] = test system: LOX IMVI
[2] = test system: K562
[3] = test system: SK-MEL-5
[4] = test system: IGROV-1
[5] = test system: A549
[6] = test system: CAKI-1
[7] = test system: NCI-H522
[8] = test system: NCI-H226
[9] = test system: MDA-MB-435
[10] = test system: RPMI-8226
[11] = test system: SNB-19
[12] = test system: U-251
[13] = test system: SF-539
[14] = test system: SK-MEL-2
[15] = test system: Malme-3M
[16] = test system: HL-60
[17] = test system: A498
[18] = test system: SK-MEL-28
[19] = test system: UO-31
[20] = test system: ACHN

Measured: GI50

CCn1c2c(c3ccccc3c1=O)C(=O)c1ccccc1-2
inactive: [1] > 100 µM | [2] > 100 µM | [3] 50.1 µM | [4] > 100 µM | [5] > 100 µM | [6] > 100 µM | [7] > 100 µM | [8] > 100 µM | [9] > 100 µM | [10] > 100 µM | [11] > 100 µM | [12] > 100 µM | [13] 19.1 µM | [14] > 100 µM | [15] > 100 µM | [16] > 100 µM | [17] > 100 µM | [18] > 100 µM | [19] > 100 µM

N#Cc1c(O)cc(=O)n2c1[nH]c1ccccc12
inactive: [2] > 100 µM | [3] > 100 µM | [4] > 100 µM | [5] > 100 µM | [6] > 100 µM | [7] > 100 µM | [8] > 100 µM | [20] > 100 µM | [9] > 100 µM | [10] > 100 µM | [11] > 100 µM | [12] > 100 µM | [13] > 100 µM | [14] > 100 µM | [15] > 100 µM | [16] > 100 µM | [17] > 100 µM | [19] > 100 µM

O=c1[nH]c(=O)n(COCCOCc2ccccc2)cc1Nc1ccccc1
inactive: [1] > 100 µM | [2] > 100 µM | [4] > 100 µM | [5] > 100 µM | [6] > 100 µM | [7] > 100 µM | [8] > 100 µM | [20] > 100 µM | [9] > 100 µM | [11] > 100 µM | [12] > 100 µM | [13] > 100 µM | [14] > 100 µM | [15] > 100 µM | [16] 41.9 µM | [17] > 100 µM | [18] > 100 µM | [19] > 100 µM

Cn1c(S)nc(C(N)=O)c1N
inactive: [1] > 100 µM | [2] > 100 µM | [3] > 100 µM | [4] > 100 µM | [5] > 100 µM | [7] > 100 µM | [8] > 100 µM | [20] > 100 µM | [9] > 100 µM | [10] > 100 µM | [11] > 100 µM | [12] > 100 µM | [13] > 100 µM | [14] > 100 µM | [15] > 100 µM | [16] > 100 µM | [17] > 100 µM | [18] > 100 µM | [19] > 100 µM

COc1cc(C2c3cccc4cccc(c34)C3CCC(=O)N32)cc(OC)c1O (configuration not stated)
inactive: [2] > 50 µM | [4] > 50 µM | [5] 42.7 µM | [8] > 50 µM | [20] > 50 µM | [9] > 50 µM | [10] > 50 µM | [11] > 50 µM | [12] > 50 µM | [13] > 50 µM | [14] > 50 µM | [16] > 50 µM | [17] > 50 µM | [18] > 50 µM | [19] > 50 µM

CC(C)(C)OC(=O)N(CCCCNC(=O)OCc1ccccc1)CCCNC(=O)OCc1ccccc1
inactive: [2] 23.3 µM | [3] 5.93 µM | [4] > 100 µM | [5] 9.71 µM | [6] 1.96 µM | [7] 4.06 µM | [8] > 100 µM | [20] 9.86 µM | [9] 35.8 µM | [10] 12.6 µM | [11] > 100 µM | [12] 35.6 µM | [13] > 100 µM | [14] 55.7 µM | [16] 5.28 µM | [17] 21.8 µM | [18] > 100 µM | [19] 5.7 µM

CC1(C)CCCCCC(C)(CCCO)C1=O (configuration not stated)
inactive: [1] > 100 µM | [2] > 100 µM | [3] > 100 µM | [4] > 100 µM | [5] > 100 µM | [6] > 100 µM | [7] > 100 µM | [8] > 100 µM | [20] > 100 µM | [9] > 100 µM | [10] > 100 µM | [11] > 100 µM | [12] > 100 µM | [14] > 100 µM | [15] > 100 µM | [16] > 100 µM | [17] > 100 µM | [18] > 100 µM | [19] > 100 µM

Cc1nc2ccc(NC3OCC(O)C(O)C3O)cc2c(=O)n1-c1ccccc1 (configuration not stated)
inactive: [1] > 100 µM | [2] > 100 µM | [3] > 100 µM | [4] > 100 µM | [6] > 100 µM | [7] > 100 µM | [8] > 100 µM | [20] > 100 µM | [9] > 100 µM | [10] > 100 µM | [11] > 100 µM | [12] > 100 µM | [14] > 100 µM | [15] > 100 µM | [16] 49.7 µM | [17] > 100 µM | [18] > 100 µM | [19] > 100 µM

O=C1Nc2ccc([N+](=O)[O-])cc2/C1=N/NC(=S)Nc1ccccc1
inactive: [1] 9.46 µM | [2] 4.92 µM | [3] 2.9 µM | [4] 1.41 µM | [5] 5.05 µM | [6] 3.53 µM | [8] 18.5 µM | [20] 3.23 µM | [9] 10.1 µM | [10] 15.5 µM | [11] 5.35 µM | [12] 4.93 µM | [13] 12 µM | [14] 11.9 µM | [16] 5.21 µM | [17] 3.56 µM | [18] 16.5 µM | [19] 4.79 µM

OCC1CCC(n2cnc3c(O)ncnc32)O1 (configuration not stated)
inactive: [1] > 100 µM | [2] > 100 µM | [3] > 100 µM | [4] > 100 µM | [5] > 100 µM | [6] > 100 µM | [7] > 100 µM | [8] > 100 µM | [20] > 1000 µM | [9] > 1000 µM | [10] > 100 µM | [14] > 100 µM | [15] > 100 µM | [16] > 100 µM | [17] > 92 µM | [18] > 100 µM | [19] 502 µM

Nc1ccc(/N=N/c2ccccc2)cc1
inactive: [1] 26.7 µM | [2] 35.8 µM | [3] 53.5 µM | [4] 29.4 µM | [5] 32.6 µM | [6] 93.1 µM | [8] 25.4 µM | [20] 30.3 µM | [9] 56.1 µM | [11] 84.1 µM | [12] 46.5 µM | [13] 35.2 µM | [14] 22.6 µM | [15] 75.9 µM | [16] 13.4 µM | [17] 46.8 µM | [18] > 100 µM | [19] 13.2 µM
